According to BindingDB's records for doi:10.1021/cc9001026 (Bristol-Myers Squibb, 2010):
Where “and” joins values, the source holds several entries; their conditions need not be identical. Identical values can stand only once.

Biological target: Gag-Pol polyprotein (Human immunodeficiency virus type 1 group M subtype B (isolate HXB2), UniProt P04585)
Assay: Inhibition Assay
Description: Inhibition assay using HIV-1 integrase.

Row | Structure (SMILES) | IC50
1 | CN [Integrase inhibitor, R3{3}] | 2700 nM
2 | NCc1ccc(Cl)c(Cl)c1 [Integrase inhibitor, R1{1}] | 1340 nM
3 | CCOCCCN1C(=O)C(=O)C(C(=O)NCc2ccc(Cl)c(Cl)c2)C1c1ccccc1Oc1ccccc1 (centres undefined) [Integrase inhibitor, 2{1,4,4}] | 90 nM and 80 nM
4 | CCOc1ccccc1C1C(C(=O)NCc2ccc(Cl)c(Cl)c2)C(=O)C(=O)N1CCCCC(NC(C)=O)C(=O)O (centres undefined) [Integrase inhibitor, 2{1,2,2}] | 57 nM and 26 nM
5 | COc1ccc(CN)cc1 | 3920 nM
6 | COc1ccc(CNC(=O)C2C(=O)C(=O)N(CC3CC3)C2c2ccccc2C(F)(F)F)cc1 (centres undefined) [Integrase inhibitor, 2{3,5,1}] | 12000 nM and 10300 nM
7 | O=C(NCc1ccc(Cl)c(Cl)c1)C1C(=O)C(=O)N(CC2CC2)C1c1cccc2c1OCO2 (centres undefined) [Integrase inhibitor, 2{1,1,1}] | 50 nM and 39 nM
8 | NCc1cc(Cl)cc(Cl)c1 [Integrase inhibitor, R1{4}] | 2470 nM
9 | CC(=O)NC(CCCCN1C(=O)C(=O)C(C(=O)NCc2ccc(Cl)c(Cl)c2)C1c1cccc2c1OCO2)C(=O)O (centres undefined) [Integrase inhibitor, 2{1,1,2}] | 67 nM and 29 nM

The next lines start with the values.

Row | IC50 | Structure (SMILES)
10 | 1750 nM | O=Cc1ccccc1OCc1ccccc1 [Integrase inhibitor, R2{4}]
11 | 2110 nM | CCOCCCN [Integrase inhibitor, R3{4}]
12 | 4130 nM | CCOCCN [Integrase inhibitor, R3{5}]
13 | 3050 nM | O=Cc1cccc2c1OCO2 [Integrase inhibitor, R2{1}]
14 | 3640 nM | NCC1CC1 [Integrase inhibitor, R3{1}]
15 | 7860 nM | O=Cc1ccccc1C(F)(F)F [Integrase inhibitor, R2{5}]
16 | 1020 nM | CCOc1ccccc1C=O [Integrase inhibitor, R2{2}]
17 | 2030 nM | O=Cc1ccccc1OCC(=O)O [Integrase inhibitor, R2{3}]
18 | 4050 nM | NCc1ccc(F)cc1 [Integrase inhibitor, R1{2}]
19 | 1840 nM | CC(=O)N[C@H](CCCCN)C(=O)O [Integrase inhibitor, R3{2}]
